Results from BindingDB's records for patent US10696638 (INDUSTRIAL TECHNOLOGY RESEARCH INSTITUTE, 2020).
pIC50: −log10 of the molar value.

Target: Rho-associated protein kinase 2 (Homo sapiens, UniProt O75116)
Test: ELISA Assay
Procedure: ROCK Substrate Coated Plate (Part No 241601): One strip well 96-well plate pre-coated with recombinant MYPT1.Buffer: 25 mM Tris, pH 7.5, 10 mM MgCl2, 5 mM Glycerol-2-Phosphate, 0.1 mM Na3VO4; 1% DMSO; 2.5 mM DTT; (Enzyme: ROCK active-II) (Cell Biolabs, Catalog #STA-406, Part No. 241505) 0.1 ng/μl.ATP Solution (Part No. 241604): 100 mM ATP. Final concentration of ATP in reaction mixture: 250 μM.Anti-phospho-MYPT1 (Thr696) (Part No. 241603).Secondary Antibody, HRP Conjugate (Part No. 231003).Biotinylated substrate, diluted to 0.25 μM with buffer described above (without ATP).Steps:1. Purified kinase or cell lysate sample can be used directly in the kinase assay or further diluted with 1× Kinase Buffer. Each sample should be assayed in duplicate.2. Add 90 μL of the diluted active ROCK-II positive control or unknown ROCK samples to the wells of the substrate plate.3. Initiate the kinase reaction by adding 10 μL of the 10× Kinase Reaction Buffer containing DTT and ATP. Mix well.4. Cover with a plate cover and incubate the wells at 30° C. for 30-60 minutes with gentle agitation.5. Stop kinase reaction by flicking out the content or by adding 50 μL of 0.5M EDTA, pH 8.0, to each well.6. Remove the plate cover and empty wells. Wash microwell strips 3 times with 250 μL 1× Wash Buffer per well with thorough aspiration between each wash. After the last wash, empty wells and tap microwell strips on absorbent pad or paper towel to remove excess 1× Wash Buffer.7. Add 100 μL of the diluted anti-phospho-MYPT1 (Thr696) antibody to each well.8. Cover with the plate cover and incubate at room temperature for 1 hour on an orbital shaker.9. Remove the plate cover and empty wells. Wash the strip wells 3 times according to step 6 above.10. Add 100 μL of the diluted HRP-conjugated secondary antibody to each well.11. Cover with the plate cover and incubate at room temperature for 1 hour on an orbital shaker.12. Remove the plate cover and empty wells. Wash microwell strips 3 times according to step 6 above. Proceed immediately to the next step.13. Warm Substrate Solution to room temperature. Add 100 μL of Substrate Solution to each well, including the blank wells. Incubate at room temperature for 5-20 minutes on an orbital shaker.14. Stop the enzyme reaction by adding 100 μL of Stop Solution into each well, including the blank wells. Results should be read immediately (color will fade over time).15. Read absorbance of each microwell on a spectrophotometer using 450 nm as the primary wave length.

Sequence of Rho-associated protein kinase 2 (O75116 whole entry): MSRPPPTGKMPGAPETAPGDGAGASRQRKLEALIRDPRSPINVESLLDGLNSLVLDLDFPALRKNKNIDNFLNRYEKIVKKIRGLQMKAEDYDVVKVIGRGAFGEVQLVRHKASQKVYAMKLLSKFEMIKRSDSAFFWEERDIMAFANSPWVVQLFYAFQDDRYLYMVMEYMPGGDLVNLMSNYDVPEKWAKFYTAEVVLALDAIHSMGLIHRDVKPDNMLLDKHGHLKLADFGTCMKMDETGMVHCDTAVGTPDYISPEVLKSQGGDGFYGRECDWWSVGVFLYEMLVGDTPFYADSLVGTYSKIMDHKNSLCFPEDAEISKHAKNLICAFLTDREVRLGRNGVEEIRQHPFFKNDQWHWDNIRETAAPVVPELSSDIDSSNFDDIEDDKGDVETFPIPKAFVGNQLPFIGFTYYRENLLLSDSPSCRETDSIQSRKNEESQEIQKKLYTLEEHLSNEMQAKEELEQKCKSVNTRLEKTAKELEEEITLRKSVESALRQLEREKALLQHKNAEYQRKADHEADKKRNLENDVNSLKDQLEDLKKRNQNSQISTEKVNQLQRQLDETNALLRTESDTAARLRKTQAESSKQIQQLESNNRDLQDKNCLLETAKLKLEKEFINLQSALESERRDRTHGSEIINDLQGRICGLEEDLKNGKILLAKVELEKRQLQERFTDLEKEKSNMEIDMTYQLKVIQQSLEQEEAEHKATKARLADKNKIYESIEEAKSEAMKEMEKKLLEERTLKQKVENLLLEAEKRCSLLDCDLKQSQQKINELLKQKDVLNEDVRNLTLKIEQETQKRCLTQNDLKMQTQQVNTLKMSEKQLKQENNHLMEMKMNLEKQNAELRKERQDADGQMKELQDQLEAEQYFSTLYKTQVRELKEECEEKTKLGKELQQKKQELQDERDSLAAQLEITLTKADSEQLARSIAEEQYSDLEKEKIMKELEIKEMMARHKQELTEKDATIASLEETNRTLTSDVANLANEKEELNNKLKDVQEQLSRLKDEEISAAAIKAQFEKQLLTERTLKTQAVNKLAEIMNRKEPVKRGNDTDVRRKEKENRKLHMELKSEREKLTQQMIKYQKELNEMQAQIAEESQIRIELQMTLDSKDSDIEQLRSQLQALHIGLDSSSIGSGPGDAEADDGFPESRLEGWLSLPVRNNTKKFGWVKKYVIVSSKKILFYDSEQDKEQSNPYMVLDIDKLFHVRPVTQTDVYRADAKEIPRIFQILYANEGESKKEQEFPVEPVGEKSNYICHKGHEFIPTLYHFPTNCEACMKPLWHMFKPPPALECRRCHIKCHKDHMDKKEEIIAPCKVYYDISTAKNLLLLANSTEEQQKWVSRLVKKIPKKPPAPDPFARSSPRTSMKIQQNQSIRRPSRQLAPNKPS

Structure (SMILES) | pIC50
O=C(Nc1ccc2cnccc2c1)N[C@@H](CO)c1ccccc1 [US10696638, Table 1.6] | < 6.00
CN(C)CCN(Cc1ccc(F)cc1)C(=O)Nc1ccc2cnccc2c1 [US10696638, Table 1.2] | < 6.00

Continued, values first:

pIC50 | Structure (SMILES)
< 6.00 | O=C(Nc1cccc2cnccc12)N(Cc1ccc(Cl)cc1)C1CCNCC1 [US10696638, formula (I) 9]
< 6.00 | CN(C)CCN(Cc1ccc(F)cc1)C(=O)Nc1cccc2cnccc12 [US10696638, formula (I) 5]
< 6.00 | O=C(Nc1cccc2cnccc12)N[C@@H](CO)c1ccccc1 [US10696638, formula (I) 4]
